According to ChEMBL document CHEMBL1201862, “PubChem BioAssay data set” (2004):
The source made the active and inactive calls.

What was measured:
[1] = cytotoxicity in HMLE control line with eGFP shRNA, dose response, counter-screen for HMLE_sh_ECad selective toxicity project, cell-based, HMLE_sh_eGFP, luminescence (AID 463074); assay type: functional, Homo sapiens;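 also: HMLE human mammary epithelial cells expressing control shRNA against eGFP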
[2] = Luminescence Cell-Based Dose Retest to Confirm Inhibitors of Cancer Stem Cells. [Related pubchem assays (depositor defined):AID2717, AID2721]; assay type: functional; conditions: Homo sapiens
[3] = target: Potassium voltage-gated channel subfamily KQT member 2 (Rattus norvegicus, UniProt O88943); assay: KCNQ2 potassium channel inhibitors, dose response, cell-based, automated electrophysiology, set II, rat KCNQ2 (AID 588637); assay type: functional
Potassium voltage-gated channel subfamily KQT member 2, sequence (O88943 whole entry): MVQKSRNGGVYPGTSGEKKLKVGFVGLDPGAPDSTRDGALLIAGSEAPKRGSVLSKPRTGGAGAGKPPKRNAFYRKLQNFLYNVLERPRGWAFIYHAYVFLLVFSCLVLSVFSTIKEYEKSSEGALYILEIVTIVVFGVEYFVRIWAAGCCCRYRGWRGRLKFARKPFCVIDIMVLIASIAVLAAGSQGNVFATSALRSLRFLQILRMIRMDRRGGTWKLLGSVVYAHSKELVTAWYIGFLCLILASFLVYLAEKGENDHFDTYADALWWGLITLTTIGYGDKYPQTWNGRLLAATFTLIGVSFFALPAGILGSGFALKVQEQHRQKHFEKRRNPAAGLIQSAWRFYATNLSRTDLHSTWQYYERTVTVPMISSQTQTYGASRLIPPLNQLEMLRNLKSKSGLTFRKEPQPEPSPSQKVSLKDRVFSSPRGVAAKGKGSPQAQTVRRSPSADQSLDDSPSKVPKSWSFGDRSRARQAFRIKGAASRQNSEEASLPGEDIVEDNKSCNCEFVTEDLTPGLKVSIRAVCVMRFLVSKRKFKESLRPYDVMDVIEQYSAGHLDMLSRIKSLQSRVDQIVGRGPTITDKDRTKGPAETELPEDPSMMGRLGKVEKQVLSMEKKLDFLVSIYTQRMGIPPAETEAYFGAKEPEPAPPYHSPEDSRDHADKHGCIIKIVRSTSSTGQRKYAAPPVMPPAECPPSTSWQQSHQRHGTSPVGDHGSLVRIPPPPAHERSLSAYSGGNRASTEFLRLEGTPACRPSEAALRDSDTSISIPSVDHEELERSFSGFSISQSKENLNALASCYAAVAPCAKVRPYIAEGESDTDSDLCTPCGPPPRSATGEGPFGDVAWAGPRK

[4] = tested on: Escherichia coli; assay: microbe, parasite or virus in culture
[5] = target: UDP-galactopyranose mutase (Mycobacterium tuberculosis, UniProt P9WIQ1); assay: Inhibitors of Mycobacterium tuberculosis UDP-galactopyranose mutase (UGM) enzyme Measured in Biochemical System Using Plate Reader - 2105-02_Inhibitor_Dose_CherryPick_Activity. [Related pubchem assays (depositor defined):AID504439]
UDP-galactopyranose mutase, sequence (P9WIQ1 whole entry): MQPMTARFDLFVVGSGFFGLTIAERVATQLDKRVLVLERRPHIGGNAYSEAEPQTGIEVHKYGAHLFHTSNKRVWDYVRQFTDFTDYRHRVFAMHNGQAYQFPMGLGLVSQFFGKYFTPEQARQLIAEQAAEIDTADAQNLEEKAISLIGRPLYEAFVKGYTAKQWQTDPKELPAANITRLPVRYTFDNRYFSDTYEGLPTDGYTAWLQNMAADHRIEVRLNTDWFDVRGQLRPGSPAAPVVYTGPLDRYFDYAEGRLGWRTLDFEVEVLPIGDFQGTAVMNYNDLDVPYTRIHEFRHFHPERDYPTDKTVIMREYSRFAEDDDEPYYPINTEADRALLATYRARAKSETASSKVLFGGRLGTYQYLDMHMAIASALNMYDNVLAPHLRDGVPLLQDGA

[6] = tested on: HEK293; assay: HEK cell cytotoxicity by LDH release, dose response, cytotoxicity control for IDE activator project, fluorescence, HEK cells (AID 588440); assay type: functional, cell-based; conditions: Homo sapiens;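 also: cytotoxicity by LDH release measuring loss of membrane integrity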
[7] = target: T1, Insulin-degrading enzyme (Homo sapiens, UniProt P14735); assay: activators of endogenous IDE in HEK cells, dose response, cell-based, fluorescence polarization (AID 588439); assay type: functional
T1 sequence (P14735 whole entry): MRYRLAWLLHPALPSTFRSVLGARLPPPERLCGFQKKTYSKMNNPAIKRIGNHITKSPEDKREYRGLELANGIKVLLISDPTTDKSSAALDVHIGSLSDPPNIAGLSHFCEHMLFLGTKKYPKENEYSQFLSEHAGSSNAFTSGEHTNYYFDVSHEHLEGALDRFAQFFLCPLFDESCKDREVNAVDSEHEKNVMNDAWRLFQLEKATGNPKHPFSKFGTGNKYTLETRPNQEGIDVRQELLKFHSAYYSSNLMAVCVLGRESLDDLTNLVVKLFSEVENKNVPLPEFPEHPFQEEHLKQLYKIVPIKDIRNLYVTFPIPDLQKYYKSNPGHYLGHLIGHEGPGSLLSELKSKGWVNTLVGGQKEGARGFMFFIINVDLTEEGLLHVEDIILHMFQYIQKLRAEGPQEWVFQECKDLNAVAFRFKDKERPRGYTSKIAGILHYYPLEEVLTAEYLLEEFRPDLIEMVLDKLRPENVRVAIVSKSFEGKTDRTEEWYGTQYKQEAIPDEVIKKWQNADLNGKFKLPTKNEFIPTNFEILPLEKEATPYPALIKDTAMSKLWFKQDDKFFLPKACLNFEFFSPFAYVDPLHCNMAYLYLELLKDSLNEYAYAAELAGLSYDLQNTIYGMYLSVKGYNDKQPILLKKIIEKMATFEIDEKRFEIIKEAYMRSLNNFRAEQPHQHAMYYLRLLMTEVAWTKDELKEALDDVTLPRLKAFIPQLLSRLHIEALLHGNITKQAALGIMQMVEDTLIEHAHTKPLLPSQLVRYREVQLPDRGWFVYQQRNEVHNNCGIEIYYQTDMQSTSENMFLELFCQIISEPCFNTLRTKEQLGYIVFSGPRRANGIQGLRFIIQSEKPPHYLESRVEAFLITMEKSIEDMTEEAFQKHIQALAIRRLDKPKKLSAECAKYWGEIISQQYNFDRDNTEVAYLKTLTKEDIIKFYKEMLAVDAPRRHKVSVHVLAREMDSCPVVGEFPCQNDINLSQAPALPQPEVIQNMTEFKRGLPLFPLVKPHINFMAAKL

[8] = tested on: HEK293; assay: optical interference in Abeta FP readout, dose response, artefact control for IDE activator project, biochemical, fluorescence polarization (AID 588442); assay type: functional, cell-based; conditions: Homo sapiens
[9] = target: ORF 73 (Human herpesvirus 8, UniProt O40947); assay: inhibitors of C-LANA binding to LBS DNA, dose response, biochemical, fluorescence polarization, cherry-picked samples (AID 504725); parameters: species or system Human gammaherpesvirus 8;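 also: fluorescence polarization of a labeled DNA duplex reporting LANA DNA binding; potency is for inhibitors that block LANA binding to the DNA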
ORF 73, sequence (O40947 whole entry): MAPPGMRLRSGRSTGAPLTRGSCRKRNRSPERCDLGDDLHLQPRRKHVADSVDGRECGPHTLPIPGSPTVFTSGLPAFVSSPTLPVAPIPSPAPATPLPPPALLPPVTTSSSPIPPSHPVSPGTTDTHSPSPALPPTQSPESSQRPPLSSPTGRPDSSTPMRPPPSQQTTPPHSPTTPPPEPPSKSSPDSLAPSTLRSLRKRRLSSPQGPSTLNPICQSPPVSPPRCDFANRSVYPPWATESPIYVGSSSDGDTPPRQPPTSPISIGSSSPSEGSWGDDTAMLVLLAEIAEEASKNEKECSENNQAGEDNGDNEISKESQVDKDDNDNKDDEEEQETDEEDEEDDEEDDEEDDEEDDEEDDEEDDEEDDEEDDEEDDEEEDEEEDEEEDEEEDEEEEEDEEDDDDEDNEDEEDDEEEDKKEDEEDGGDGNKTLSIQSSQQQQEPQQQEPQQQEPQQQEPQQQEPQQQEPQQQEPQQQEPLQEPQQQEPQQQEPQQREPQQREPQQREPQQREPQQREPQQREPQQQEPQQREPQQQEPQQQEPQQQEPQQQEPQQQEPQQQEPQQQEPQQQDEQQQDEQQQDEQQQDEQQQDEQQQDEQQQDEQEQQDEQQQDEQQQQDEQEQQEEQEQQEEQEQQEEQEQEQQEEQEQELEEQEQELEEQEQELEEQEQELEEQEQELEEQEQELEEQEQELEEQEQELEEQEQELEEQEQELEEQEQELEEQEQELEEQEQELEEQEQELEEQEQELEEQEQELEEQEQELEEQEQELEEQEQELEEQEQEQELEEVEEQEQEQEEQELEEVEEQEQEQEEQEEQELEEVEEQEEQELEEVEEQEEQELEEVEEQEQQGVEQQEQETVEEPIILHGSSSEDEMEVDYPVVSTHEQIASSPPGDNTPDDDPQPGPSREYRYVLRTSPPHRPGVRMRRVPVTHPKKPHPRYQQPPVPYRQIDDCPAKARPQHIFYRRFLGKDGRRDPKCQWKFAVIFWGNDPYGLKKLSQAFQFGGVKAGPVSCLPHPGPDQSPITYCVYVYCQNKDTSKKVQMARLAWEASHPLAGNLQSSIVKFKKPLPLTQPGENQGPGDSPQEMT

[10] = CFTR ΔF508 corrector activity in bronchial cells, dose response, human bronchial epithelial cells, plate reader, cherry-pick, two tests (AID 743267); assay type: functional, cell-based
[11] = target: T1, Insulin-degrading enzyme; assay: activators of recombinant IDE enzyme, dose response, counter-screen for IDE activator project, biochemical, fluorescence polarization (AID 588681)
[12] = target: Beta Lactamase (Pseudomonas aeruginosa, UniProt Q932Y6);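 also: confirmatory high-throughput screen measuring VIM-2 metallo-beta-lactamase inhibition by epi-absorbance in dose response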
Beta Lactamase, sequence (Q932Y6 whole entry): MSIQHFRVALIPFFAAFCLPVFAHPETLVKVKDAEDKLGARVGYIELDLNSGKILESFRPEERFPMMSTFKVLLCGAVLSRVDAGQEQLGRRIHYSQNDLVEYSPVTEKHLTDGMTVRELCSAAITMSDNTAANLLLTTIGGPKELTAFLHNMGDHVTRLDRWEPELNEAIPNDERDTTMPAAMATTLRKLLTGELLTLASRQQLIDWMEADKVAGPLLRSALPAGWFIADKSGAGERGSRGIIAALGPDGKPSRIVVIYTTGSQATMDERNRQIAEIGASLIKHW

[13] = HepG2 cell cytotoxicity, dose response, cytotoxicity control, ATP luminescence, cherry-pick, set 6 (AID 1053125); assay type: functional, cell-based
[14] = cells; conditions: A549
[15] = tested on: Escherichia coli; assay: microbe, parasite or virus in culture; remark: listed apart in the source
[16] = tested on: HEK293; assay: cells; conditions: Homo sapiens
[17] = tested on: HEK293; assay: cells; conditions: Homo sapiens; remark: listed apart in the source
[18] = tested on: Jurkat; assay: SAR Analysis of small molecule inhibitors of T-cell specific antigen receptor-induced NF-kB activation in a Jurkat cell line using a luminescence assay - Set 2. [Related pubchem assays (depositor defined):AID435003, AID435012, AID465]; assay type: functional, cell-based; conditions: Homo sapiens
[19] = tested on: HEK293; assay: cytotoxicity in HEK293T NF-kB-Luc cells, SAR follow-up, cytotoxicity control for NF-kB activator project, cell-based, resazurin fluorescence (AID 493251); assay type: functional; conditions: Homo sapiens
[20] = tested on: HEK293; assay: SAR Analysis of small molecule inhibitors of T-cell specific antigen receptor-induced NF-kB activation in a HEK-293T cell line using a luminescence assay - Set 2. [Related pubchem assays (depositor defined):AID435003, AID435012, AID489026]; assay type: functional, cell-based; conditions: Homo sapiens
[21] = cells; assay type: functional, cell-based
[22] = Luminescence Cell-Based Dose Confirmation HTS to Identify Inhibitors of Platelet Dense Granule Release. [Related pubchem assays: 1663 (Primary HTS), 1678 (Summary of Project)]; assay type: functional
[23] = luciferase reporter signal reduction – luminescence, H4-C neuroglioblastoma cells, dose response (AID 2458); assay type: functional, cell-based;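 also: H4 neuroglioblastoma cells stably carrying a luciferase reporter gene fusion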
[24] = inhibitors of SNCA 5'UTR-driven translation, confirmation, luminescence, H4 neuroglioblastoma cells, dose confirmation (AID 2454); assay type: functional, cell-based;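 also: H4 neuroglioblastoma cells carrying an alpha-synuclein 5'UTR luciferase reporter; potency for inhibition of the luciferase signal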
[25] = off-target signal loss in HeLa-CEM21 co-culture – HeLa F-luc CTL cells, cherry-picked, counter-screen for HIV-1 Env fusion inhibitor project, dose response (AID 652040); assay type: functional, cell-based;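 also: potency for signal decrease marking cytotoxic or nonspecific inhibition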
[26] = tested on: INS1; assay: beta cell apoptosis inhibitors, cytokine rescue, dose response, luminescence, retest (AID 449756); assay type: functional, cell-based; conditions: Rattus norvegicus;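 also: cell death triggered by IL-1 beta plus TNF-alpha plus IFN-gamma mixture; protective hits raise ATP signal compared with cytokine alone wells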
[27] = inhibitors of clade B AD8 Env fusion, dose response, cell-based, cherry-pick (AID 652062); assay type: functional;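 also: luciferase signal from cell-cell fusion driven by HIV-1 clade B AD8 Env; potency is for inhibitors of fusion seen as a drop in luminescence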
[28] = CEM21 lymphoblast cell cytotoxicity, dose response, cytotoxicity control for viral fusion inhibitor project, CellTiter-Glo luminescence, cherry-picked (AID 652042); assay type: functional, cell-based;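 also: potency for signal decrease meaning cytotoxicity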
[29] = tested on: BJ; assay: cytotoxicity toward BJ-TERT-LT-ST fibroblasts, dose response, cell-based, RAS-independent, luminescence (AID 1935); assay type: functional; conditions: Homo sapiens;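 also: BJ fibroblasts immortalized with TERT plus LT and ST oncogenes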
[30] = Luminescence Cell-Based Dose Response HTS to Identify Inhibitors of 5'UTR Stem-Loop Driven Prion Protein mRNA Translation in H4 Neuroglioblastoma Cells. [Related pubchem assays: 1827 (Project Summary), 1813 (Primary HTS)]; assay type: functional
[31] = tested on: BJ; assay: cytotoxicity toward Ras-transformed BJeLR fibroblasts, dose response, cell-based, alamar blue fluorescence, cherrypicked samples (AID 2631); assay type: functional; conditions: Homo sapiens;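 also: confirmatory dose-response assay in RAS-dependent BJ fibroblasts engineered with TERT, LT and ST, with cytotoxicity read by fluorescence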
[32] = inhibitors of HIV Env-driven cell fusion, dose response, cherry-pick (AID 652057); assay type: functional, cell-based
[33] = tested on: BJ; assay: cells; assay type: functional, cell-based; conditions: Homo sapiens
[34] = tested on: Jurkat; assay: antigen receptor-induced NF-kB inhibitors, dose response, Jurkat, luciferase reporter, luminescence, B- and T-cell (AID 489004); assay type: functional, cell-based; conditions: Homo sapiens;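 also: NF-kB luciferase reporter Jurkat cells stimulated with PMA plus ionomycin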
[35] = tested on: BJ; assay: cytotoxicity toward BJ-TERT fibroblasts, dose response, cell-based, RAS-independent, luminescence (AID 1933); assay type: functional; conditions: Homo sapiens
[36] = target: Luciferin 4-monooxygenase (Photinus pyralis, UniProt P08659); assay: firefly luciferase enzyme inhibitors, dose response, biochemical, luminescence (AID 1891)
Luciferin 4-monooxygenase, sequence (P08659 whole entry): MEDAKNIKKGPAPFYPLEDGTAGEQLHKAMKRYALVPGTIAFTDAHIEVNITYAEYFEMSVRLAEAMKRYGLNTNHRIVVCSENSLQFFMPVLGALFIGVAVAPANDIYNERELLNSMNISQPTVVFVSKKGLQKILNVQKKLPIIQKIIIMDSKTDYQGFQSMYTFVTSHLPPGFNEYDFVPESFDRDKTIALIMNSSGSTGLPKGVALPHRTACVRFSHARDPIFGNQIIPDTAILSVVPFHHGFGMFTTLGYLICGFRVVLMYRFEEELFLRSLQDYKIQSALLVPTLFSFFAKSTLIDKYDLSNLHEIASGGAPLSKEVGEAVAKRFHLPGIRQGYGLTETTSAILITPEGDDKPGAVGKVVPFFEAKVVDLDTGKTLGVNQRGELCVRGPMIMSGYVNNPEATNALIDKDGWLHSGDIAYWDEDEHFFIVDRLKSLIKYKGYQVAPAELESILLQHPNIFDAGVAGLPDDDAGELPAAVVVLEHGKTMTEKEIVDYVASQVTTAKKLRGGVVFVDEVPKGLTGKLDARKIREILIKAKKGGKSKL

[37] = target: T2, Heat shock factor protein 1 (Mus musculus, UniProt P38532); assay: inhibition of MG132-induced HSE-luciferase signal, confirmation, cell-based, NIH3T3, luminescence, dose retest (AID 2382); assay type: functional;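 also: NIH3T3 fibroblasts with HSF1-driven luciferase reporter stressed by proteasome inhibitor MG132; luminescence from HSF1-driven luciferase expression after 8 hours of MG132 stress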
T2 sequence (P38532 whole entry): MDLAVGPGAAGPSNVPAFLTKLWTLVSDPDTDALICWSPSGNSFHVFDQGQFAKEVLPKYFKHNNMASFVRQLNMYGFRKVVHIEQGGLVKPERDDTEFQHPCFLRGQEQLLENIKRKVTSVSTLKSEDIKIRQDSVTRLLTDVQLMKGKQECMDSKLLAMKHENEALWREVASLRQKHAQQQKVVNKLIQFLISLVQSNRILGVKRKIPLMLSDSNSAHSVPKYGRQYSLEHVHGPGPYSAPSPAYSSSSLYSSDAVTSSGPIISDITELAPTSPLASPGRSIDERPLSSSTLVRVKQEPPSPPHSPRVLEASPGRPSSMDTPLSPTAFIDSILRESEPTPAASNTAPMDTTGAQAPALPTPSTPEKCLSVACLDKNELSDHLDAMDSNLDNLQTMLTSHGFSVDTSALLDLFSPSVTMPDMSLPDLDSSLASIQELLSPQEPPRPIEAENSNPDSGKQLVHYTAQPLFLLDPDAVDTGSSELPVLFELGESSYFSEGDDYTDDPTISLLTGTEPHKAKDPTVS

[38] = ZM109 Env clade C HIV-1 fusion inhibitors, dose response, HeLa effector, CEM target cells, luciferase, cherry-pick (AID 652058); assay type: functional, cell-based
[39] = inhibitors of firefly luciferase expression or activity, dose response, H4 neuroglioma cells, luminescence (AID 1990); assay type: functional, cell-based
[40] = cytotoxicity toward DRD oncogenic fibroblasts, dose response, cell-based, non-viral oncogenic, luminescence (AID 1934); assay type: functional; conditions: Homo sapiens
[41] = inhibitors of SNCA 5'UTR-driven reporter translation, confirmation, H4 neuroglioma cells, luminescence (AID 1988); assay type: functional, cell-based
[42] = cytotoxicity in HEK-293T NF-kB-Luc cells, dose response, cytotoxicity control for B/T-cell NF-kB inhibitor project, cell-based, uHTS hits (AID 489019); assay type: functional;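 also: IC50 reflects cytotoxicity as loss of cell viability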

COc1cccc(C(=O)NC(=S)Nc2ccccc2N2CCOCC2)c1
AC50 [1]: 33.5 µM (active) | AC50 [2]: 20.1 µM (active) | IC50 [3]: 6.01 µM (active)

Cc1cc(Cl)ccc1NC(=O)CN1CCCC1
AC50 [4]: 40 µM (active)

Nc1ccc2ccc3cccc[n+]3c2c1.[O-][Cl+3]([O-])([O-])[O-]
AC50 [5]: 3.88 µM (active) | IC50 [6]: > 89.2 µM (inactive) | EC50 [7]: > 54.7 µM (inactive) | EC50 [8]: 6.89 µM (active) | AC50 [9]: 1.3 µM (active) | AC50 [10]: 21.4 µM (active) | EC50 [11]: > 54.7 µM (inactive) | IC50 [12]: 9.33 µM (active) | AC50 [13]: > 52 µM (inactive) | AC50 [14]: 27.3 µM (active)

O=C(CCc1ccccc1)N1CCN(Cc2ccc(F)cc2Cl)CC1
AC50 [15]: 66.5 µM (active)

COc1ccc(CNCCc2c[nH]c3ccccc23)c(OC)c1OC
EC50 [16]: > 59.6 µM (inactive) | EC50 [17]: > 59.6 µM (inactive)

COc1ccc(C)cc1NC(=O)c1ccc([N+](=O)[O-])o1
IC50 [18]: 6.03 µM (active) | IC50 [19]: > 80 µM (inactive) | IC50 [20]: 75.6 µM (inactive)

Nc1nc(F)nc2c1ncn2[C@@H]1O[C@H](CO)[C@@H](O)[C@H]1O
EC50 [21]: 0.084 µM (active) | EC50 [22]: < 0.088 µM (active) | EC50 [23]: 0.199 µM (active) | EC50 [24]: 0.07 µM (active) | AC50 [25]: 1.4 µM (active) | AC50 [26]: 1.35 µM (active) | AC50 [27]: 1.92 µM (active) | AC50 [28]: 0.271 µM (active) | EC50 [29]: 0.46 µM (active) | EC50 [30]: < 0.1 µM (active) | EC50 [31]: 0.348 µM (active) | AC50 [32]: 0.341 µM (active) | EC50 [33]: 1.35 µM (active) | IC50 [34]: 2.35 µM (active) | EC50 [35]: 0.124 µM (active) | EC50 [36]: > 112 µM (not active) | EC50 [37]: 5.46 µM (active) | AC50 [38]: < 0.26 µM (active) | EC50 [39]: 0.242 µM (active) | EC50 [40]: 0.674 µM (active) | EC50 [41]: < 0.1 µM (active) | IC50 [42]: > 80 µM (inactive)
